Experimental data reported in patent US9073855B2, “BCL-2 selective apoptosis-inducing agents for the treatment of cancer and immune diseases” (AbbVie Inc., priority 2008, dated 2015).
pKi: −log10 of the molar value.

What was measured:
GST-Bcl-2 = GST-Bcl-2 (Homo sapiens, UniProt P10415); experiment: TR-FRET binding assay, GST-Bcl-2 with F-Bak peptide probe; settings: for pKi: TR-FRET Binding Affinity
Procedure, shortened: (§1)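 Ki was derived with Wang's equation for competitive binding of two ligands. The read-out was time-resolved fluorescence after a 3 h room-temperature incubation, using a Tb-labelled antibody donor and the F-Bak peptide acceptor (excitation 340/35 nm). Test compounds entered as DMSO serial dilutions starting at 50 μM, which was the 2× concentration.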

GST-Bcl-XL = GST-Bcl-XL (Homo sapiens, UniProt Q07817); experiment: TR-FRET binding assay, GST-Bcl-XL with F-Bak peptide probe; settings: TR-FRET Binding Affinity
Chain of GST-Bcl-XL (Q07817 whole entry): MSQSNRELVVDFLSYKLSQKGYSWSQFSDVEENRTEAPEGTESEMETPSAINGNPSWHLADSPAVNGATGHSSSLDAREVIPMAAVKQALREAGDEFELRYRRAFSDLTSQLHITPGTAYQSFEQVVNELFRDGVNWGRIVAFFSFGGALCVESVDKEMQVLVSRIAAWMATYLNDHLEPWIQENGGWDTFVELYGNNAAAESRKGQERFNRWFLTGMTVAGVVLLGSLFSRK
Procedure, shortened: as §1

[1] = GST-Bcl-XL, F-Bak peptide probe
[2] = ratio of TR-FRET Ki values, Bcl-XL over Bcl-2
[3] = TR-FRET, Bcl-XL Ki divided by Bcl-2 Ki

Chain of GST-Bcl-2 (P10415 whole entry): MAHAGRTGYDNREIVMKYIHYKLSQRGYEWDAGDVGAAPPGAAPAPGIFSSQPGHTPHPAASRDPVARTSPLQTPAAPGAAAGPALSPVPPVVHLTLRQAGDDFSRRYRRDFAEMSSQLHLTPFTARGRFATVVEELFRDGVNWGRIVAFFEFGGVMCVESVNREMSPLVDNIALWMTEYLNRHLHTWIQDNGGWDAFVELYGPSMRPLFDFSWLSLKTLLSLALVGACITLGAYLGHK

Compound	pKi (GST-Bcl-2; GST-Bcl-2, F-Bak peptide probe)	pKi (GST-Bcl-XL; [1])	Binding selectivity ratio (Bcl-XL Ki/Bcl-2 Ki) (GST-Bcl-2; [2])	pKi (GST-Bcl-2)	pKi (GST-Bcl-XL)	Binding selectivity ratio (Bcl-XL Ki/Bcl-2 Ki) (GST-Bcl-2; [3])
CN1CC[C@H](Nc2ccc(S(=O)(=O)NC(=O)c3ccc(N4CCN(CC5=C(c6ccc(Cl)cc6)CC(C)(C)CC5)CC4)cc3Oc3ccc4[nH]ccc4c3)cc2[N+](=O)[O-])C1 [Example 234, 4-(4-{[2-(4-chlorophenyl)-4,4-dimethylcyclohex-1-en-1-yl]methyl}piperazin-1-yl)-2-(1H-indol-5-yloxy)-N-[(4-{[(3S)-1-methylpyrrolidin-3-yl]amino}-3-nitrophenyl)sulfonyl]benzamide]	9.43	7.61				
CC1(C)CCC(CN2CCN(c3ccc(C(=O)NS(=O)(=O)c4ccc(NCC5CN(C6CC6)CCO5)c([N+](=O)[O-])c4)c(Oc4cccc5[nH]cnc45)c3)CC2)=C(c2ccc(Cl)cc2)C1 (centres unmarked) [Example 432, 2-(1H-benzimidazol-4-yloxy)-4-(4-{[2-(4-chlorophenyl)-4,4-dimethylcyclohex-1-en-1-yl]methyl}piperazin-1-yl)-N-[(4-{[(4-cyclopropylmorpholin-2-yl)methyl]amino}-3-nitrophenyl)sulfonyl]benzamide]	10.64	8.03	408.8			
CN1CCN(c2ccc(S(=O)(=O)NC(=O)c3ccc(N4CCN(CC5=C(c6ccc(Cl)cc6)CC(C)(C)CC5)CC4)cc3Oc3ccc4[nH]ccc4c3)cc2[N+](=O)[O-])CC1 [Example 107, 4-(4-{[2-(4-chlorophenyl)-4,4-dimethylcyclohex-1-en-1-yl]methyl}piperazin-1-yl)-2-(1H-indol-5-yloxy)-N-{[4-(4-methylpiperazin-1-yl)-3-nitrophenyl]sulfonyl}benzamide]	8.68	6.88				
CN(C)CC(=O)N1CCO[C@@H](COc2ncc(S(=O)(=O)NC(=O)c3ccc(N4CCN(CC5=C(c6ccc(Cl)cc6)CC(C)(C)CC5)CC4)cc3Oc3cccc4[nH]cnc34)cc2Cl)C1 [Example 424, 2-(1H-benzimidazol-4-yloxy)-N-[(5-chloro-6-{[(2R)-4-(N,N-dimethylglycyl)morpholin-2-yl]methoxy}pyridin-3-yl)sulfonyl]-4-(4-{[2-(4-chlorophenyl)-4,4-dimethylcyclohex-1-en-1-yl]methyl}piperazin-1-yl)benzamide]	> 11.00	8.11	782.5			
CN(C)CCCOc1ccc(-c2ccc(Cl)cc2)c(CN2CCN(c3ccc(C(=O)NS(=O)(=O)c4ccc(NCC5CCOCC5)c(S(=O)(=O)C(F)(F)F)c4)c(Oc4ccccc4)c3)CC2)c1 [Example 119, 4-[4-({4′-chloro-4-[3-(dimethylamino)propoxy]-1,1′-biphenyl-2-yl}methyl)piperazin-1-yl]-2-phenoxy-N-({4-[(tetrahydro-2H-pyran-4-ylmethyl)amino]-3-[(trifluoromethyl)sulfonyl]phenyl}sulfonyl)benzamide]	9.21	6.64				
O=C(NS(=O)(=O)c1ccc(NC2CCN(S(=O)(=O)c3ccccc3)CC2)c([N+](=O)[O-])c1)c1ccc(N2CCN(Cc3ccccc3-c3ccc(Cl)cc3)CC2)cc1Oc1ccccc1 [Example 157, 4-{4-[(4′-chloro-1,1′-biphenyl-2-yl)methyl]piperazin-1-yl}-N-[(3-nitro-4-{[1-(phenylsulfonyl)piperidin-4-yl]amino}phenyl)sulfonyl]-2-phenoxybenzamide]	8.35	< 6.18				
CN1CCN(CCNc2ccc(S(=O)(=O)NC(=O)c3ccc(N4CCN(CC5=C(c6ccc(Cl)cc6)CC(C)(C)CC5)CC4)cc3Oc3cccc4[nH]ccc34)cc2[N+](=O)[O-])CC1 [Example 101, 4-(4-{[2-(4-chlorophenyl)-4,4-dimethylcyclohex-1-en-1-yl]methyl}piperazin-1-yl)-2-(1H-indol-4-yloxy)-N-[(4-{[2-(4-methylpiperazin-1-yl)ethyl]amino}-3-nitrophenyl)sulfonyl]benzamide]	10.04	7.95				
CC1(C)CCC(CN2CCN(c3ccc(C(=O)NS(=O)(=O)c4ccc(NN5CCN(CCO)CC5)c([N+](=O)[O-])c4)c(Oc4ccc5[nH]ccc5c4)c3)CC2)=C(c2ccc(Cl)cc2)C1 [Example 233, 4-(4-{[2-(4-chlorophenyl)-4,4-dimethylcyclohex-1-en-1-yl]methyl}piperazin-1-yl)-N-[(4-{[4-(2-hydroxyethyl)piperazin-1-yl]amino}-3-nitrophenyl)sulfonyl]-2-(1H-indol-5-yloxy)benzamide]	9.61	< 6.18				
CN(C)CCCNc1ccc(S(=O)(=O)NC(=O)c2ccc(N3CCN(Cc4ccccc4-c4ccc(Cl)cc4)CC3)cc2Oc2ccccc2)cc1C(F)(F)F [Example 92, 4-{4-[(4′-chloro-1,1′-biphenyl-2-yl)methyl]piperazin-1-yl}-N-{[4-{[3-(dimethylamino)propyl]amino}-3-(trifluoromethyl)phenyl]sulfonyl}-2-phenoxybenzamide]	8.36	6.46				
CC1(C)CCC(CN2CCN(c3ccc(C(=O)NS(=O)(=O)c4ccc(NCC5CCOCC5)c([N+](=O)[O-])c4)c(Oc4ccccc4)c3)CC2)=C(c2ccc(Cl)cc2)C1 [Example 460, 4-(4-{[2-(4-chlorophenyl)-4,4-dimethylcyclohex-1-en-1-yl]methyl}piperazin-1-yl)-N-({3-nitro-4-[(tetrahydro-2H-pyran-4-ylmethyl)amino]phenyl}sulfonyl)-2-phenoxybenzamide]				10.31	7.54	
O=C(NS(=O)(=O)c1ccc(NCC2CCOCC2)c([N+](=O)[O-])c1)c1ccc(N2CCN(Cc3cc(OCCCN4CCCCC4)ccc3-c3ccc(Cl)cc3)CC2)cc1Oc1ccccc1 [Example 114, 4-(4-{[4′-chloro-4-(3-piperidin-1-ylpropoxy)-1,1′-biphenyl-2-yl]methyl}piperazin-1-yl)-N-({3-nitro-4-[(tetrahydro-2H-pyran-4-ylmethyl)amino]phenyl}sulfonyl)-2-phenoxybenzamide]	10.02	7.84				
CC1(C)CCC(CN2CCN(c3cc(Oc4cccc5[nH]ncc45)c(C(=O)NS(=O)(=O)c4cnc(OCC5(F)CCOCC5)c(Cl)c4)cc3Cl)CC2)=C(c2ccc(Cl)cc2)C1 [Example 510, 5-chloro-N-({5-chloro-6-[(4-fluorotetrahydro-2H-pyran-4-yl)methoxy]pyridin-3-yl}sulfonyl)-4-(4-{[2-(4-chlorophenyl)-4,4-dimethylcyclohex-1-en-1-yl]methyl}piperazin-1-yl)-2-(1H-indazol-4-yloxy)benzamide]				9.17	6.76	257.8
O=C(NS(=O)(=O)c1ccc(NCC2CCOCC2)c([N+](=O)[O-])c1)c1ccc(N2CCN(Cc3cc(N4CCOCC4)ccc3-c3ccc(Cl)cc3)CC2)cc1Oc1cccc2[nH]ccc12 [Example 198, 4-{4-[(4′-chloro-4-morpholin-4-yl-1,1′-biphenyl-2-yl)methyl]piperazin-1-yl}-2-(1H-indol-4-yloxy)-N-({3-nitro-4-[(tetrahydro-2H-pyran-4-ylmethyl)amino]phenyl}sulfonyl)benzamide]	8.40	< 6.18				
CC1(C)CCC(CN2CCN(c3ccc(C(=O)NS(=O)(=O)c4cnc(OCC5CCc6nccn6C5)c(Cl)c4)c(Oc4cccc5[nH]ncc45)c3)CC2)=C(c2ccc(Cl)cc2)C1 (centres unmarked) [Example 536, 4-(4-{[2-(4-chlorophenyl)-4,4-dimethylcyclohex-1-en-1-yl]methyl}piperazin-1-yl)-N-{[5-chloro-6-(5,6,7,8-tetrahydroimidazo[1,2-a]pyridin-6-ylmethoxy)pyridin-3-yl]sulfonyl}-2-(1H-indazol-4-yloxy)benzamide]				10.60	7.65	886.1
